Assay results: patent US20210338555A1, “COMPOSITION AND METHOD OF INHIBITING MINERALOCORTICOID RECEPTOR ACTIVITY BY APPLYING IT TO THE SKIN” (AMOREPACIFIC CORPORATION, priority 2018, published 2021)

Test system: mineralocorticoid receptor
Assay: MMTV-luciferase reporter assay of mineralocorticoid receptor activity in CV-1 cells
Assay type: cell-based
Details: 10 μg/ml compound, after 2 hours dexamethasone (1 nM), cultivated 24 hours, FIG. 2
Protocol: RNA was separated from a CV-1 cell and PCR was performed using reverse transcriptase, so gene expressions of a glucocorticoid receptor (GR) and a mineralocorticoid receptor (MR) were confirmed, and the results are shown in FIG. 1.
The CV-1 cell was cultivated in a 24-well flat incubator. After 24 hours, the incubating medium was replaced with a 10% charcoal dextran-treated FBS-DMEM, and then after 4 hours, a mixing DNA of a MMTV-luciferase reporter plasmid and an internal Control Group of a pRL-SV-40 plasmid was transfected using TRANSFAST™ reagent (Promega). After 24 hours, it was treated with 10 μg/ml of the compound (INDOFINE Chemical Company, Inc.) represented by Chemical Formula 1-1, and after 2 hours, was treated with dexamethasone (1 nM), and then cultivated for 24 hours. The luciferase activity in the cell lysate was measured using a Dual-Luciferase Reporter Assay System (Promega), and the transfection efficiency was normalized by revising Renilla luciferase activity to measure a relative luciferase activity, and the results are shown in FIG. 2.

O=c1c(-c2ccc(O)c(O)c2)coc2cc(O)ccc12 [Chemical Formula 1-1]
relative luciferase activity (mineralocorticoid receptor activity induced by dexamethasone): deteriorated activity of the mineralocorticoid receptor
